In one experiment the target is T1, Ret wt (Homo sapiens, UniProt P07949).
T1 construct: purchased Invitrogen PV3082
In words: HTRF kinase activity test, RET wild type. It is filed as biochemical.

Experiment [1] concerns RET wild-type, mutant and/or fusion-type. In words: Overall statement on RET inhibitory activity (summary of Table 3). As to conditions: statement in words summarising Table 3. From the text:
As shown in the above table, the example compounds of the present disclosure have improved inhibitory activity against RET wild-type, mutant and/or fusion-type.

The subject of the next experiment is TT Cell. In words: Cell inhibitory activity test (CCK8). The experiment is classed as cell-based. Particulars: Homo sapiens, TT, Table 3, 72 hours incubation. The method, boiled down: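 Cells seeded at 4000/well, pre-incubated 24 h (37 °C, 5% CO2), then exposed to graded compound concentrations for 72 h. Viability read by CCK8 at 450 nm after 1-2 h; IC50 fitted from concentration-absorbance data.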

A further experiment deals with T2, RET (V804L), activated (Homo sapiens, UniProt P07949, V804L).
T2 construct: purchased Signalchem R02-12BG-10
In words: HTRF kinase activity test, RET V804L. Particulars: Table 2. The experiment is classed as biochemical. On the procedure: This test combined peptide substrates and a single proprietary monoclonal antibody with HTRF technology, which was a highly sensitive and stable technology for detecting molecular interactions of proteins. The enzyme phosphorylates the substrate, then the Eu-labeled antibody binds to the phosphorylated substrate, and streptavidin-XL665 binds to all substrates. The TR-FRET signal was generated by the HTRF principle. […] Based on this, the inhibitory effect was evaluated.
(§1) The other compounds were diluted 3-fold gradiently with DMSO from the 10 mM stock solution to a total of 10 concentrations respectively.
(§2) Adding 4 volumes of distilled water to 1 volume of enzyme buffer 5×; 5 mM MgCl2; 1 mM DTT.
(§3) b) centrifuging the compound plate for 1 minute at 1000 g.
(§4) c) sealing the test board.
(§5) f) adding 4 μl of 1× kinase buffer to each well of the test plate, centrifuging the sample plate at 1000 g for 30 seconds, and placing it at room temperature for 10 minutes.
g) preparing a solution of 5× TK-substrate-biotin ([…]) in kinase buffer and 5×ATP (50 μM) in kinase buffer respectively. […]
(§6) The inhibition rate % was calculated as follows:
(§7) Inhibition rate %=[1−(fluorescence signal value of test compound−fluorescence signal value of positive control)/(average ratio of negative control−average ratio of positive control)]*100%
Ratio: generated from the measured fluorescence signal value […]

The next experiment addresses T3, RET (V804M) (Homo sapiens, UniProt P07949, V804M).
T3 construct: purchased Signalchem R02-12GG
In words: HTRF kinase activity test, RET V804M. The experiment is classed as biochemical. Particulars: Table 3; read-out: RET Enzyme (V804M) IC50. On the procedure:
This test combined peptide substrates and a single proprietary monoclonal antibody with HTRF technology, which was a highly sensitive and stable technology for detecting molecular interactions of proteins. The enzyme phosphorylates the substrate, then the Eu-labeled antibody binds to the phosphorylated substrate, and streptavidin-XL665 binds to all substrates. The TR-FRET signal was generated by the HTRF principle. Once the inhibitor (test compound) was added, a weaker TR-FRET signal is obtained. Based on this, the inhibitory effect was evaluated.
as §1, §2
a) Transferring 10 nl of the compound dilution (prepared in 5.2) to each well of the test plate (784075, Greiner);
as §3, §4
d) preparing 5×Ret wt (0.2 ng/μl) and 5×Ret V804L (0.5 ng/μl)/5×Ret V804M (0.5 ng/μl) in 1× kinase buffer respectively.
e) adding 2 μl of 5×Ret wt or 2 μl of Ret V804L/RET V804M to a 384-well test plate (784075, Greiner).
as §5
g) preparing a solution of 5× TK-substrate-biotin ([…]) in kinase buffer and 5×ATP (50 μM) in kinase buffer respectively.
h) starting the reaction by adding 2 μl STK-substrate-biotin and 2 μl ATP (prepared in the step g).
i) centrifuging the sample plate for 30 seconds at 1000 g. Sealing the test board and placing it at room temperature for 30 minutes.
j) preparing 4×Sa-XL 665 (250 nM) in HTRF detection buffer.
k) adding 5 μl of Sa-XL 665 and 5 μl of TK-antibody-Cryptate (prepared in the step i) to each well of the test plate.
) centrifuging at 1000 g for 30 seconds and placing it at room temperature for 1 hour.
m) reading the fluorescence signal values at 615 nm (Cryptate) and 665 nm (XL665) on the Envision 2104 plate reader.
Calculating the ratio of each hole (665 nm/615 nm).
as §6, §7
Ratio: generated from the measured fluorescence signal value
The average ratio of the positive control is the average ratio of the positive control (200 nM AT13148) in the sample plate;
The average ratio of negative controls is the average ratio of negative controls (0.1% DMSO) in the sample plate.
GraphPad 6.0 was used to fit the logarithm of the % inhibition rate and the compound concentration into a nonlinear regression (dose response−variable slope) to calculate the IC50 value.

The mark [2] stands for this setting: Table 2, read-out: IC50 (nM) RET wt.
The mark [3] stands for this setting: Table 3, read-out: RET Enzyme (wild type) IC50.

This note sets out measurements from patent US20210379056A1, “SUBSTITUTED PYRAZOLE FUSED RING DERIVATIVE, PREPARATION METHOD THEREFOR, AND APPLICATION THEREOF” (Applied Pharmaceutical Science, Inc., priority 2018, published 2021).

Read-outs that look alike come from different tables or passages of the source. A value given as a limit tells only on which side of the number the result lay.

T1 sequence (P07949 29-1114): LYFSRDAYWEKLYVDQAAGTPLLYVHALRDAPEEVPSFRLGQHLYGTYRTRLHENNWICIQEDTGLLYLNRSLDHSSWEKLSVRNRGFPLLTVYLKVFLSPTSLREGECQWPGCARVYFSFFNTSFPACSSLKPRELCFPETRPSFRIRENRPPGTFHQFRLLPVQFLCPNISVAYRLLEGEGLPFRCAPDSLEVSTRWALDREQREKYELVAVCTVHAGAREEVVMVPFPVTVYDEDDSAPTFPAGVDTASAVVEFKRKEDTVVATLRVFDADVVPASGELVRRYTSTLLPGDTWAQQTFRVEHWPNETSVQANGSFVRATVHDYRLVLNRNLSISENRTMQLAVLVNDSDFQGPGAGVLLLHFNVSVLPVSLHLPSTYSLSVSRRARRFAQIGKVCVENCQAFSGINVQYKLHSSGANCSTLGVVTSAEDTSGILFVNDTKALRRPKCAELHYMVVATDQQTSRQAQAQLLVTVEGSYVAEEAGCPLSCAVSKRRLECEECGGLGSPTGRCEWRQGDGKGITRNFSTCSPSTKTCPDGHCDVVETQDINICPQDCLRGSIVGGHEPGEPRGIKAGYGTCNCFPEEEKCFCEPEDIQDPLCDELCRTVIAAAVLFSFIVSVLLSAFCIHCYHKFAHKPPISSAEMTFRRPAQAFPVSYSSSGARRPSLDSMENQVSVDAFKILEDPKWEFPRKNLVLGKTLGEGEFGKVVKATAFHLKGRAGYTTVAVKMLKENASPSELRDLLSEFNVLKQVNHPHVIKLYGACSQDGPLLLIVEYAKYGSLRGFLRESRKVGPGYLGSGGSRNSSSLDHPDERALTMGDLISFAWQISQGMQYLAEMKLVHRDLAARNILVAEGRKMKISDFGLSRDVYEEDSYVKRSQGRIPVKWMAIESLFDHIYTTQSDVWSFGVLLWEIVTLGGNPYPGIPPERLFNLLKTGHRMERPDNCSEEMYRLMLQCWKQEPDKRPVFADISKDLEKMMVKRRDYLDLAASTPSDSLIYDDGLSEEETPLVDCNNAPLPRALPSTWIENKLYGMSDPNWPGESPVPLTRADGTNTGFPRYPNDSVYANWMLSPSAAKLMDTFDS
T3 sequence (P07949 29-1114 V804M): as the sequence (P07949 29-1114) above, with V776M counted along it
T2 sequence (P07949 29-1114 V804L): as the sequence (P07949 29-1114) above, with V776L counted along it

Consider `Cn1cc(-c2cc(-c3ccc(N4CCN(C(=O)Cc5ccc(F)cn5)CC4)nc3)c3c(C#N)c(N)nn3c2)cn1` [APS069, 2-amino-4-(6-(4-(2-(5-fluoropyridin-2-yl)acetyl)piperazin-1-yl)pyridin-3-yl)-6-(1-methyl-1H-pyrazol-4-yl)pyrazolo[1,5-a]pyridine-3-carbonitrile], for which the half-inhibitory concentration (IC50) on Ret wt (setting [2]) is 0.325 nM; on Ret wt (setting [3]) it was below 1 nM; with TT Cell, 28.8 nM; against RET (V804L), activated it was 0.124 nM. In addition, the “inhibitory activity against RET wild-type, mutant and/or fusion-type” value (shortened to “inhibitory activity”) in experiment [1] is “excellent activity”.
On to `Cn1cc(-c2cc(-c3ccc(N4CCC(Cc5ccccn5)CC4)nc3)c3c(C#N)c(N)nn3c2)cn1` [APS070, 2-amino-6-(1-methyl-1H-pyrazol-4-yl)-4-(6-(4-(pyridin-2-yl-methyl)piperidin-1-yl)pyridin-3-yl)pyrazolo[1,5-a]pyridine-3-carbonitrile], for which the IC50 on Ret wt (setting [2]) was 0.418 nM; at Ret wt (setting [3]), below 1 nM; in the experiment with TT Cell it was 15.6 nM; at RET (V804L), activated, 0.0759 nM. Also, the “inhibitory activity” value in experiment [1] is listed as “excellent activity”.
Regarding `CCOCCOc1cc(-c2ccc(N3CC4CC(C3)N4Cc3ccc(OC)nc3)nc2)c2c(C#N)c(N)nn2c1` [APS109, 2-amino-6-(2-ethoxyethoxy)-4-(6-(6-((6-methoxypyridin-3-yl)methyl)-3,6-diazabicyclo [3.1.1]heptan-3-yl)pyridin-3-yl)pyrazolo[1,5-a]pyridine-3-carbonitrile], the figures for the concentration for half-maximal inhibition (IC50) at Ret wt (setting [3]), at RET (V804M) and in the experiment on TT Cell were below 1 nM, below 1 nM and 57.9 nM, respectively. Besides, in experiment [1], the “inhibitory activity” value is given as “excellent activity”.
Turning to `COc1ccc(CN2C3CC2CN(c2ccc(-c4cc(OCCOC5CC5)cn5nc(N)c(C#N)c45)cn2)C3)cn1` [APS113, 2-amino-6-(2-cyclopropoxyethoxy)-4-(6-(6-((6-methoxypyridin-3-yl)methyl)-3,6-diazabicyclo[3.1.1]heptan-3-yl)pyridin-3-yl)pyrazolo[1,5-a]pyridine-3-carbonitrile], the results for the IC50 on Ret wt (setting [3]), at RET (V804M) and with TT Cell were below 1 nM, below 1 nM and 83.5 nM, respectively. In experiment [1], the “inhibitory activity” value is reported as “excellent activity”.
For `COc1ccc(CN2C3CC2CN(c2ccc(-c4cc(OCCF)cn5nc(N)c(C#N)c45)cn2)C3)cn1` [APS119, 2-amino-6-(2-fluoroethoxy)-4-(6-(6-((6-methoxypyridin-3-yl)methyl)-3,6-diazabicyclo[3.1.1]heptan-3-yl)pyridin-3-yl)pyrazolo[1,5-a]pyridine-3-carbonitrile], the concentration for half-maximal inhibition (IC50) on Ret wt (setting [3]) is below 1 nM; at RET (V804M), below 1 nM; in the experiment on TT Cell it was 6.6 nM. In experiment [1], the “inhibitory activity” value is given as “excellent activity”.
